The target of the assay is T1, Ec YeaWX lysate (Escherichia coli YeaW/YeaX) (Escherichia coli, UniProt P0ABR7).
T1 construct: create a 5′ NdeI restriction site including the ATG start codon of yeaW; create a PstI restriction site just 3′ of the yeaX TAG stop codon; made in house; host or cells: E. coli BL21 (DE3), pET30a, IPTG induction; unpurified French-press lysate supernatant
As to the kind of experiment: Inhibition of d9-TMA formation from d9-carnitine in Ec YeaWX lysate (LC-MS/MS). Type of assay: biochemical. The conditions noted are these: Ec YeaWX lysate 2.0 mg/mL protein, 250 μM NADPH, 50 μM d9-carnitine chloride, 37° C. for two hours; read-out: TMA Inhibition (IC50, mol/L). From the text: This example provides an exemplary assay for identifying and characterizing compounds that inhibit the formation of TMA from carnitine.
Escherichia coli BL21*DE3::pET30a-Ec yeaWX #1 (Ec YeaWX) strain was generated as described below. The contiguous Escherichia coli coding sequence yeaW (equivalent to uniprot ID P0ABR7.1 (YeaW) (SEQ ID NO: 2)) and yeaX (equivalent to uniprot ID P76254.1 (YeaX) (SEQ ID NO: 3)) were PCR amplified from Escherichia coli strain K-12 substr. BW25113 genomic DNA. PCR primers (YeaW_Nde_I_fwd2—SEQ ID NO: 4; YeaX_rev2—SEQ ID NO: 5) were designed to create a 5′ NdeI restriction site including the ATG start codon of yeaW and create a PstI restriction site just 3′ of the yeaX TAG stop codon.
The amplicon was restricted and cloned into the NdeI and PstI sites of the plasmid pET30a downstream of the inducible T7 promoter. A blast search of the resulting cloned amplicon DNA sequence (SEQ ID NO: 1) corresponded to nucleotide range 1884665 to 1886810 of Escherichia coli str. K-12 substr. MG1655 (NCBI Accession # NC_000913). The construct was transformed and grown in E. coli BL21 (DE3) and the recombinant yeaWX overexpressed by addition of isopropyl β-D-1-thiogalactopyranoside (IPTG).
The bacteria were grown aerobically in 50 mL LB broth (Difco #244620; 10 g/L Tryptone, 5 g/L yeast extract, 10 g/L NaCl, 50 μg/mL kanamycin), in a 500 mL Erlenmeyer flask. The cultures were inoculated from glycerol stock of BL21*DE3::pET30a-Ec yeaWX #1 strain. Strains were cultured all day at 37° C. with 250 rpm shaking. Two 300 mL Minimal M9 Medium (6 g/L Na2HPO4, 3 g/L KH2PO4, 0.5 g/L NaCl, 1 g/L NH4Cl, 0.1 mM CaCl2, 1 mM MgSO4, 0.2% Dextrose, 1 mg/L Thiamine, 50 μg/mL kanamycin), in 1 L Erlenmeyer flasks, were inoculated with 5 mL of the LB broth day culture and cultured overnight at 37° C. with 250 rpm shaking. The overnight cultures were used to inoculate twelve 1 L cultures of Minimal M9 media in 2.8 L fluted Erlenmeyer flasks to an OD 600 nm of 0.05 (typically approximately 28 mLs), which were grown at 37° C. with 250 rpm shaking until an OD600 of approximately 0.4 was reached. Expression of YeaWX was induced with 1 mM IPTG and the induced cultures were further grown overnight at 37° C. with 250 rpm shaking. The biomass was pelleted by centrifugation at 6000×g for 12 minutes at 4° C. The cell pellet was suspended in 240 mL of ice-cold 1× Phosphate Buffered Saline (Ca^2+ and Mg^2+ free). Ninety micrograms of Lysozyme (Sigma # L6876 Lot # SLBG8654V; Sigma-Aldrich Corp., St. Louis, Mo.) was added and incubated with 320 rpm shaking for 30 minutes at 4° C. Lysis was achieved via French press with a 4° C. prechilled 1″ diameter chamber at 1000 psi (high ratio; internal PSI equivalent ˜16000). The lysate was centrifuged at 6,000×g for 12 minutes at 4° C. to pellet extra debris. Glycerol was added to the centrifuged lysate supernatant at a final concentration of 15% A protein concentration of the centrifuged lysate supernatant was determined by a BCA Protein Assay Kit (Pierce #23225), typically in the 2.5 to 4.5 mg/ml range. The centrifuged Ec YeaWX lysate supernatant was aliquoted into 20 mL volumes and stored frozen at −80° C.
Ec YeaWX lysate was diluted to 2.0 mg/mL protein with 1× Dulbecco's phosphate buffered saline (DPBS) plus 15% glycerol. Nicotinamide adenine dinucleotide phosphate (NADPH) was added to 250 μM. One hundred and fifty microliters of Ec YeaWX lysate was dispensed into a deep-well plate (polypropylene, 2 mL volume, Corning Axygen catalogue # P-DW-20-C). […] The plates were agitated on a plate shaker for 1 minute. d9-carnitine chloride (1.5 μL of 5 mM) was added to all wells to reach a final d9-carnitine chloride concentration of 50 μM.
The plates were again agitated on a plate shaker for 1 minute and incubated at 37° C. for two hours. After incubation, 1.5 μL of formic acid was added to each well (final concentration=1% formic acid). The plates were agitated on a plate shaker for 1 minute and placed on ice. […]

T1 sequence (P0ABR7 whole entry): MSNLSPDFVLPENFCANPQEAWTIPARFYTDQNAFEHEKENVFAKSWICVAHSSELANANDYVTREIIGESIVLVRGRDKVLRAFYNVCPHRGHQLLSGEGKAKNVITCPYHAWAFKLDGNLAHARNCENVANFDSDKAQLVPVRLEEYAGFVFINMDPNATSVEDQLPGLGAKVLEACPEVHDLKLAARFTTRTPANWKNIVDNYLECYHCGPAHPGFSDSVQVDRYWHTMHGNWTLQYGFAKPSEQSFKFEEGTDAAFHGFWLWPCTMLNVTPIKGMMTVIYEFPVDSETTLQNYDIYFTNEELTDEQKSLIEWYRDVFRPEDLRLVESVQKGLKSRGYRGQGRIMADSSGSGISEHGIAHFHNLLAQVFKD

Consider `S=C=N[C@@H]1C[C@H]2CC[C@@H]1C2` (relative stereo) [Compound 29, exo-2-Norbornyl-isothiocyanate], for which the IC50 is 21.6 µM.
To `COc1ccc(C)cc1N=C=S` [Compound 1, 2-Methoxy-5-methylphenyl isothiocyanate] belongs 61.6 µM; to `CC(C)(C)N=C=S` [Compound 2, tert-Butyl isothiocyanate], > 1000 µM.
Turning to `Cc1cccc(N=C=S)c1` [Compound 3, m-Tolyl isothiocyanate], the IC50 was found to be 14.5 µM.
`CSc1ccc(N=C=S)cc1` [Compound 4, 4-(Methylthio)phenyl isothiocyanate]: the IC50 was 10.8 µM.
Take `S=C=NCc1ccccc1` [Compound 5, Benzyl isothiocyanate]: the IC50 was found to be 8.37 µM.
On to `CCCCCN=C=S` [Compound 6, 1-pentyl isothiocyanate], for which the IC50 came out at 32.2 µM.
As to `CCN(CC)CCCN=C=S` [Compound 7, 3-(Diethylamino)propyl isothiocyanate], the IC50 is 146 µM.
On to `S=C=NCC1CCCCC1` [Compound 8, Cyclohexylmethyl isothiocyanate], for which the IC50 is 38.1 µM.
`S=C=NCCc1ccc(Cl)cc1` [Compound 9, 2-(4-Chlorophenethyl) isothiocyanate]: the IC50 was found to be 12.7 µM.
As to `CCC(C)N=C=S` (stereo not drawn) [Compound 10, sec-butyl isothiocyanate], the IC50 was 146 µM.
`CC(C)CN=C=S` [Compound 12, Isobutyl isothiocyanate]: the IC50 was 74.5 µM.
`CCCCN=C=S` [Compound 13, Butyl isothiocyanate]: the IC50 came out at 63.6 µM.
For the molecule `CC(C)N=C=S` [Compound 15, Isopropyl isothiocyanate], the IC50 was determined as 200 µM.
As for `CC(C)CCN=C=S` [Compound 16, 1-isothiocyanato-3-methylbutane], the IC50 was determined as 75.9 µM.
To `CCCCCCN=C=S` [Compound 17, Hexyl isothiocyanate] belongs 43.5 µM.
For the molecule `S=C=Nc1ccccc1` [Compound 18, Phenyl isothiocyanate], the IC50 came to 6.45 µM.
Regarding `S=C=Nc1cccc2ccccc12` [Compound 19, 1-Naphthyl isothiocyanate], the IC50 was determined as 12.5 µM.
Consider `S=C=Nc1ccc(Br)cc1` [Compound 20, 4-Bromophenyl isothiocyanate], for which the IC50 is 4.72 µM.
For the molecule `O=C(N=C=S)c1ccccc1` [Compound 21, Benzoyl isothiocyanate], the IC50 was 138 µM.
Turning to `CC(C)(C)OC(=O)NCCCCN=C=S` [Compound 22, N-Boc-4-isothiocyanatobutylamine], the IC50 stood at 17.7 µM.
For the molecule `CC(C)(C)OC(=O)Nc1ccc(N=C=S)cc1` [Compound 23, N-Boc-4-isothiocyanatoaniline], the IC50 stood at 15.7 µM.
For the molecule `S=C=NCCCN1CCOCC1` [Compound 24, 3-(4-Morpholino)propyl isothiocyanate], the IC50 came to 68.5 µM.
Take `S=C=NCCN1CCOCC1` [Compound 25, 2-(4-Morpholino)ethyl isothiocyanate]: the IC50 came to 69 µM.
As for `C[C@H](N=C=S)c1ccccc1` [Compound 26, (S)-(+)-alpha-Methylbenzyl isothiocyanate], the figure is 7.34 µM; as for `S=C=Nc1ccc(Cl)cc1` [Compound 27, 4-Chlorophenyl isothiocyanate], 4.57 µM.
Turning to `COc1ccc(N=C=S)cc1` [Compound 28, 4-Methoxyphenyl isothiocyanate], the IC50 was determined as 5.76 µM.
As for `S=C=NC1CCCCC1` [Compound 30, Cyclohexyl isothiocyanate], the IC50 was 38.8 µM.
For `CCc1ccc(N=C=S)cc1` [Compound 31, 4-Ethylphenyl isothiocyanate], the IC50 amounted to 17.3 µM.
For the molecule `COc1ccccc1N=C=S` [Compound 32, 2-Methoxyphenyl isothiocyanate], the IC50 was determined as 33.3 µM.
As for `COc1ccc(OC)c(N=C=S)c1` [Compound 33, 2,5-Dimethoxyphenyl isothiocyanate], the IC50 worked out at 47.7 µM.
Take `COc1cccc(N=C=S)c1` [Compound 34, 3-Methoxyphenyl isothiocyanate]: the IC50 turned out to be 9.59 µM.
Turning to `S=C=NCCN1CCCCC1` [Compound 35, 2-Piperidinoethyl isothiocyanate], the IC50 turned out to be 104 µM.
For `CCOC(=O)CN=C=S` [Compound 36, Ethyl isothiocyanatoacetate], the IC50 stood at 30 µM.
Turning to `CCCCCC12CCC(C(=O)Oc3ccc(N=C=S)cc3)(CC1)CC2` [Compound 37, 4-Isothiocyanatophenyl 4-pentylbicyclo[2.2.2] octane-1-carboxylate], the IC50 was > 1000 µM.
As for `S=C=NC(c1ccccc1)c1ccccc1` [Compound 38, Benzhydryl isothiocyanate], the figure is 3.05 µM; as for `CC(=O)O[C@H]1[C@H](OC(C)=O)[C@@H](N=C=S)OC[C@H]1OC(C)=O` [Compound 39, 2,3,4-Tri-O-acetyl-α-D-arabinopyranosyl isothiocyanate], 50.1 µM; as for `CCN(CC)CCN=C=S` [Compound 40, Ethanamine, N,N-diethyl-2-isothiocyanato], 320 µM.
As for `CN(C)CCCN=C=S` [Compound 41, 3-isothiocyanato-N,N-dimethyl-1-Propanamine], the IC50 amounted to 320 µM.
As for `CN(C)CCN=C=S` [Compound 42, 2-Isothiocyanato-N,N-dimethylethanamine], the IC50 amounted to 164 µM.
As for Ethyl isothiocyanate [Compound 11], the IC50 was 82.2 µM.
As for Methyl isothiocyanate [Compound 14], the IC50 worked out at 149 µM.

For the origin of these results see US10786479B2, “Methods for inhibiting conversion of carnitine to trimethylamine (TMA)” (The Procter & Gamble Company, priority 2015, dated 2020).
